The record followed here is patent EP3345917A1, “ANTIPROTOZOAL COMPOUNDS” (Bacoba AG, priority 2017, dated 2018).

The test system of series [1] is Trypanosoma brucei rhodesiense (STIB 900 strain). In words: Alamar Blue assay against Trypanosoma brucei rhodesiense grown in axenic medium. The format is cell-based. The note with it: In vitro inhibition, read-out: T.b.rhod. Summed up: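 Alamar Blue-based IC50 determination, in triplicate, on axenically grown STIB 900 trypanosomes. Melarsoprol included as reference.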
(In general: Resazurin is reduced to fluorescent resorufin, in cell work by metabolically active cells.)

The test system of series [2] is Trypanosoma cruzi trypomastigote forms (Tulahuen strain). The experiment in a line: Intracellular Trypanosoma cruzi assay in L6-cells, beta-galactosidase/CPRG readout. It is filed as cell-based. The note with it: In vitro inhibition, read-out: T.cruzi. An outline of the steps: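 Readout was β-galactosidase cleavage of CPRG, read photometrically at 540 nm after 2–6 h colour development, giving IC50 values. Parasites: LacZ-expressing Tulahuen C2C4 strain grown in rat L6 myoblasts; run in triplicate.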

Series [3] relates to Axenically grown Leishmania donovani amastigotes (strain MHOM/ET/67/L82). The experiment in a line: Axenic Leishmania donovani amastigote resazurin assay. The format is cell-based. The conditions noted are these: In vitro inhibition, read-out: L.don. ax. Summed up: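 IC50 values derive from resazurin fluorescence (ex 536 nm, em 588 nm), expressed relative to the negative control, after 2-4 hours of plate development. Axenic amastigotes of strain MHOM/ET/67/L82 were used; each test run in triplicate.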

The subject of series [4] is intracellular Leishmania donovani (L.don. InMac). The experiment in a line: Intracellular Leishmania donovani assay (L.don. InMac). The format is cell-based. The note with it: In vitro inhibition. The source says:
(§1) Tests were done in triplicate.

The next series relates to Plasmodium falciparum. In words: 3H-hypoxanthine incorporation assay against Plasmodium falciparum. The conditions noted are these: In vitro inhibition, read-out: P.falc NF5. The format is cell-based. How it is done:
as §1
IC50 values were calculated by linear interpolation.

Series [5] has as its system Trypanosoma brucei brucei. In words: Acute mouse sleeping sickness model (in vivo antitrypanosomal activity). As to Parasitaemia day 7: key: 0 = no parasite in 20 fields of view; ((+)) = 1 Trypanosome in 20 fields of view; (+) = 1 Trypanosome per field of view; + = 2 - 5 Trypanosomes per field of view; ++ = 6 - 20 Trypanosomes per field of view, the mouse is killed; +++ = > 20 Trypanosomes per field of view, the mouse is killed. The note with it: for Mean day of relapse / Mean day of survival / Day of relapse / Parasitaemia day 7 / Parasitaemia day 10 / Parasitaemia day 14 / Parasitaemia day 17 / Parasitaemia day 21 / Parasitaemia day 24 / Parasitaemia day 28 / Parasitaemia day 31 / Survival days: 4 treatment days; for Mean day of relapse / Mean day of survival / animals surviving until day 31: group of four mice; for Day of relapse / Parasitaemia day 7 / Parasitaemia day 10 / Parasitaemia day 14 / Parasitaemia day 17 / Parasitaemia day 21 / Parasitaemia day 24 / Parasitaemia day 28 / Parasitaemia day 31 / Survival days: individual mice; for parasitaemia on day 7: day 7 post infection; for reduction of parasitaemia compared to untreated controls: four mice. The method, then:
This model mimics the first stage of the human African trypanosomiasis. Adult female NMRI mice were purchased from Janvier (St. Berthevin, France). They weighed between 20 and 25 g at the beginning of the study and were kept under standard conditions at 22 °C and 60-70% humidity in macro Ion type III cages with food pellets and water ad libitum. The samples were first dissolved in 100% DMSO, followed by addition of distilled H2O to a final DMSO concentration of 10%. For determination of the in vivo antitrypanosomal activity, mice were infected intraperitoneally with 1 x 10^4 STIB900 bloodstream forms. […] A control group of four mice was infected, but remained untreated. The determination of the parasitaemia was done on days 7, 10, 14, 17, 21, 24, 28, and 31 post infection. To do this 6 µL of tail blood were diluted in 24 µL sodium citrate (3.2%), whereby the first µL was discarded to obtain circulating blood. Five µL of this mixture were transferred to a glass slide and covered with an 18 x 18 mm cover slide. The sample was examined under a light microscope (200-fold magnification) and parasites were counted in 3 of the 16 squares of the grid.

The nature of series [6]: Cytotoxicity assay on L6-cells (Alamar Blue). The note with it: rat, Cytotox L6, Cytotoxicity against rat myoblast cells (L6).
The mark [7] stands for this setting: 3 mg/kg per injection, 2 per day, i.p.
Setting [8] is: 3 mg/kg twice a day for 4 days, intraperitoneally.
The mark [9] stands for this setting: 30 mg/kg per injection, 1 per day, p.o.

Several values for one entry are separate records, joined by “and”; a condition that tells them apart may be missing. Equal values may be shown once. Entries after “also recorded” stand apart in the source; their conditions may differ. Non-standard residues stand in square brackets, D forms with d. Residues, ends and D or L forms follow the SMILES beside them. *: point of attachment. Hexenoyl(2E,4S-Me) = CC[C@H](C)/C=C/C(=O)*; Leu(3R-OH) = CC(C)[C@@H](O)[C@H](N)C(=O)O; Dansyl = CN(C)c1cccc2c(S(=O)(=O)*)cccc12; NH((S)CH(Me)CH2NMe2) = C[C@@H](CN(C)C)N*; Pro(4S-Me) = C[C@@H]1CN[C@H](C(=O)O)C1; NH(1-CH2NMe2-cBu) = CN(C)CC1(N*)CCC1; Gly(octyl) = CCCCCCCC[C@H](N)C(=O)O; Oxazole4CO(2-Me) = Cc1nc(C(=O)*)co1; hCha = N[C@@H](CCC1CCCCC1)C(=O)O; Hexanoyl = CCCCCC(=O)*; X1 = CN(C)C1CCC(N*)CC1; Aib = CC(C)(N)C(=O)O; βAla = NCCC(=O)O

`Cc1nc(C(=O)N2CCC[C@H]2C(=O)N[C@@H](CCC2CCCCC2)C(=O)N[C@@H](CC(C)C)C(=O)NC(C)(C)C(=O)N[C@@H](CC(C)C)C(=O)N[C@@H](CC(C)C)C(=O)NC(C)(C)C(=O)NC(C)(C)C(=O)NCCC(=O)NC2(CN(C)C)CCC2)co1` [Compound 6025, (2S)-2-[(2S)-4-cyclohexyl-2-{[(2S)-1-(2-methyl-1,3-oxazole-4-carbonyl)pyrrolidin-2-yl]formamido}butanamido]-N-(1-{[(1S)-1-{[(1S)-1-({1-[(1-{[2-({1-[(dimethylamino)methyl]cyclobutyl}carbamoyl)ethyl]carbamoyl}-1-methylethyl)carbamoyl]-1-methylethyl}carbamoyl)-3-methylbutyl]carbamoyl}-3-methylbutyl]carbamoyl}-1-methylethyl)-4-methylpentanamide] ({Oxazole4CO(2-Me)}-P[hCha]L[Aib]LL[Aib][Aib][βAla]-{NH(1-CH2NMe2-cBu)}): the IC50 in series [1] worked out at 0.5 nM. In addition, in series [2], the IC50 stood at 215 nM. Moreover, in series [3], the IC50 came out at 31300 nM. Besides, in series [4], the IC50 turned out to be 41.1 nM. Further, the IC50 in the series on Plasmodium falciparum was determined as 20900 nM. Besides, in series [5] (setting [7]), the “Mean day of relapse” value stood at 15 days; the “Mean day of survival” value was found to be 28 days; the Day of relapse was 10 day and 17 day (2×); the “Parasitaemia day 7” value was 0. Further, in series [5] (setting [7]), the “Parasitaemia day 10” value is 0 (3×) and ((+)) (((+)) = 1 Trypanosome in 20 fields of view); the “Parasitaemia day 14” value came out at 0; the “Parasitaemia day 17” value is 0 and ((+)) (((+)) = 1 Trypanosome in 20 fields of view) and ++ (++ = 6 - 20 Trypanosomes per field of view, the mouse is killed) and (+) ((+) = 1 Trypanosome per field of view); the “Parasitaemia day 21” value was 0 (2×) and (+) ((+) = 1 Trypanosome per field of view). In series [5] (setting [7]), the “Parasitaemia day 24” value was 0 (2×) and ((+)) (((+)) = 1 Trypanosome in 20 fields of view); the “Parasitaemia day 28” value came out at 0; the “Parasitaemia day 31” value was 0 (2×) and (+) ((+) = 1 Trypanosome per field of view); the Survival days is 31 days (3×) and 17 days. For the same molecule, in series [5] (setting [8]), the animals surviving treatment entry is “all animals survived treatment”, the “parasitaemia on day 7” value is reported as “no observable parasitaemia”, the “reduction of parasitaemia compared to untreated controls” value is given as “significant reduction of parasitaemia” and the “animals surviving until day 31” value is recorded as “three out of four”. In addition, the “animals with no observable parasitaemia at day 31” value in series [5] (3 mg/kg twice a day for 4 days, intraperitoneally, of the three survivors) is 2. In series [5] (setting [9]), the “Mean day of relapse” value is 15 days; the “Mean day of survival” value is 21 days; the Day of relapse is 17 day (2×) and 14 day and 10 day; the “Parasitaemia day 7” value was 0. Besides, in series [5] (setting [9]), the “Parasitaemia day 10” value was 0 (3×) and ((+)) (((+)) = 1 Trypanosome in 20 fields of view); the “Parasitaemia day 14” value was 0 (2×) and (+) ((+) = 1 Trypanosome per field of view) (2×); the “Parasitaemia day 17” value is “+ (+ = 2 - 5 Trypanosomes per field of view); also recorded: ++ (++ = 6 - 20 Trypanosomes per field of view, the mouse is killed)”; the “Parasitaemia day 21” value is on record as “((+)) (((+)) = 1 Trypanosome in 20 fields of view)”. In series [5] (setting [9]), the “Parasitaemia day 24” value was “(+) ((+) = 1 Trypanosome per field of view)”; the “Parasitaemia day 28” value was “+ (+ = 2 - 5 Trypanosomes per field of view)”; the “Parasitaemia day 31” value is “+++ (+++ = > 20 Trypanosomes per field of view, the mouse is killed)”; the Survival days was 20 days and 17 days (2×) and 31 days. In addition, in series [5] (mouse, in vivo, po, 30 mg/kg), the animals surviving treatment entry is “all animals survived treatment”. Besides, in series [5] (orally at 30 mg/kg once a day), the “relapse by day 17” value was “all had relapsed”, the “parasitaemia on day 7” value is “no observable parasitaemia”, the “reduction of parasitaemia compared to untreated controls” value was “significant reduction of parasitaemia” and the “animals surviving until day 31” value is “one”. In series [6], the IC50 at 70 h was determined as 1910 nM.
As for `CCCCCCCC[C@H](NC(=O)[C@@H]1CCCN1S(=O)(=O)c1cccc2c(N(C)C)cccc12)C(=O)N[C@@H](CC(C)C)C(=O)NC(C)(C)C(=O)N[C@@H](CC(C)C)C(=O)N[C@@H](CC(C)C)C(=O)NC(C)(C)C(=O)NC(C)(C)C(=O)NCCC(=O)N[C@@H](C)CN(C)C` [Compound 5765, (2S)-2-{[(2S)-1-{[5-(dimethylamino)naphthalen-1-yl]sulfonyl}pyrrolidin-2-yl]formamido}-N-[(1S)-1-[(1-{[(1S)-1-{[(1S)-1-{[1-({1-[(2-{[(2S)-1-(dimethylamino)propan-2-yl]carbamoyl}ethyl)carbamoyl]-1-methylethyl}carbamoyl)-1-methylethyl]carbamoyl}-3-methylbutyl]carbamoyl}-3-methylbutyl]carbamoyl}-1-methylethyl)carbamoyl]-3-methylbutyl]decanamide] (Dansyl-P[Gly(octyl)]L[Aib]LL[Aib][Aib][βAla]-{NH((S)CH(Me)CH2NMe2)}), the IC50 is 1.6 nM in series [1]; 126 nM in series [2]; 4.3 nM in series [3]; 203 nM in series [4]; 1 nM in the series with Plasmodium falciparum. Further, the IC50 at 70 h in series [6] is 250 nM.
With `CCCCCCCC[C@H](NC(=O)[C@@H]1C[C@H](C)CN1C(=O)/C=C/[C@@H](C)CC)C(=O)N[C@H](C(=O)NC(C)(C)C(=O)N[C@@H](CC(C)C)C(=O)N[C@@H](CC(C)C)C(=O)NC(C)(C)C(=O)NC(C)(C)C(=O)NCCC(=O)N[C@@H](C)CN(C)C)[C@H](O)C(C)C` [Compound 5492, (2S)-N-[(1S,2R)-1-[(1-{[(1S)-1-{[(1S)-1-{[1-({1-[(2-{[(2S)-1-(dimethylamino)propan-2-yl]carbamoyl}ethyl)carbamoyl]-1-methylethyl}carbamoyl)-1-methylethyl]carbamoyl}-3-methylbutyl]carbamoyl}-3-methylbutyl]carbamoyl}-1-methylethyl)carbamoyl]-2-hydroxy-3-methylbutyl]-2-{[(2S,4S)-4-methyl-1-[(2E,4S)-4-methylhex-2-enoyl]pyrrolidin-2-yl]formamido}decanamide] ({Hexenoyl(2E,4S-Me)}-[Pro(4S-Me)][Gly(octyl)][Leu(3R-OH)][Aib]LL[Aib][Aib][βAla]-{NH((S)CH(Me)CH2NMe2)}), the IC50 amounted to 5.5 nM in series [1]; 113 nM in series [2]; 2 nM in series [3]; 36.6 nM in series [4]; 4.7 nM in the series on Plasmodium falciparum. In addition, the IC50 at 70 h in series [6] was determined as 147 nM.
For the molecule `CCCCCCCC[C@H](NC(=O)[C@@H]1CCCN1C(=O)CCCCC)C(=O)N[C@@H](CC(C)C)C(=O)NC(C)(C)C(=O)N[C@@H](CC(C)C)C(=O)N[C@@H](CC(C)C)C(=O)NC(C)(C)C(=O)NC(C)(C)C(=O)NCCC(=O)NC1CCC(N(C)C)CC1` (stereo partly drawn) [Compound 5881, (2S)-N-[(1S)-1-[(1-{[(1S)-1-{[(1S)-1-{[1-({1-[(2-{[4-(dimethylamino)cyclohexyl]carbamoyl}ethyl)carbamoyl]-1-methylethyl}carbamoyl)-1-methylethyl]carbamoyl}-3-methylbutyl]carbamoyl}-3-methylbutyl]carbamoyl}-1-methylethyl)carbamoyl]-3-methylbutyl]-2-{[(2S)-1-hexanoylpyrrolidin-2-yl]formamido}decanamide] (Hexanoyl-P[Gly(octyl)]L[Aib]LL[Aib][Aib][βAla]-X1), the IC50 in series [1] is 44200 nM; in series [2], 44 nM; in series [3], 0.7 nM; in series [4], 42500 nM; with Plasmodium falciparum it was 0.2 nM. This molecule came in with an IC50 at 70 h in series [6] of 592 nM.
